Measured values as given in paper PMC6268188, “Comparative Studies of the (Anti) Mutagenicity of Baccharis dracunculifolia and Artepillin C by the Bacterial Reverse Mutation Test” (Molecules, 2012).
“And” between values parts separate entries of the source, which are not always exact repeats. Identical values can stand only once. Like-named read-outs stand apart in the source and are kept apart here.

Tested on: S. typhimurium TA102
Assay: Antimutagenicity assay (Ames test with known mutagens), strain TA102
Assay type: cell-based, Salmonella typhimurium
[1] = 0.69 µg/plate + AF 10.0 μg/plate, TA 102, + S9
[2] = 1.37 µg/plate + AF 10.0 μg/plate, TA 102, + S9
[3] = 1.37 µg/plate + MMC 0.5 μg/plate, TA 102, − S9
[4] = 2.75 µg/plate + AF 10.0 μg/plate, TA 102, + S9
[5] = 2.75 µg/plate + MMC 0.5 μg/plate, TA 102, − S9
[6] = 5.49 µg/plate + AF 10.0 μg/plate, TA 102, + S9
[7] = 5.49 µg/plate + MMC 0.5 μg/plate, TA 102, − S9
[8] = […] + AF 10.0 μg/plate, TA 102, + S9
[9] = […] + MMC 0.5 μg/plate, TA 102, − S9

`CC(C)=CCc1cc(/C=C/C(=O)O)cc(CC=C(C)C)c1O` [ArtC, 3-{4-hydroxy-3,5-di(3-methyl-2-butenyl)phenyl}-2(E)-propenoic acid] was tested, and the “Number of revertants (M ± SD)/ plate” value was 879 ± 11 revertants/plate and 529 ± 20 revertants/plate, the “% inhibition” value [1] was 41% and the “Number of revertants (M ± SD)/ plate” value [1] was 645 ± 23 revertants/plate. The antimutagenic effect class [1] was “*** (strong antimutagenic effect (> 40% inhibition))”, the “Number of revertants (M ± SD)/ plate” value (0.69 µg/plate + MMC 0.5 μg/plate, TA 102, − S9) was 1096 ± 19 revertants/plate and the “% inhibition” value [2] was 46%. For the same compound, the “Number of revertants (M ± SD)/ plate” value [2] was 595 ± 25 revertants/plate, the antimutagenic effect class [2] was “*** (strong antimutagenic effect (> 40% inhibition))” and the “% inhibition” value [3] was 5%. For the same compound, the “Number of revertants (M ± SD)/ plate” value [3] was 1022 ± 18 revertants/plate, the antimutagenic effect class [3] was “* (no antimutagenic effect (< 25% inhibition))” and the “% inhibition” value [4] was 48%. For the same compound, the “Number of revertants (M ± SD)/ plate” value [4] was 566 ± 17 revertants/plate, the antimutagenic effect class [4] was “*** (strong antimutagenic effect (> 40% inhibition))” and the “% inhibition” value [5] was 7%. For the same compound, the “Number of revertants (M ± SD)/ plate” value [5] was 994 ± 25 revertants/plate, the antimutagenic effect class [5] was “* (no antimutagenic effect (< 25% inhibition))” and the “% inhibition” value [6] was 56%. For the same compound, the “Number of revertants (M ± SD)/ plate” value [6] was 488 ± 14 revertants/plate, the antimutagenic effect class [6] was “*** (strong antimutagenic effect (> 40% inhibition))” and the “% inhibition” value [7] was 12%. For the same compound, the “Number of revertants (M ± SD)/ plate” value [7] was 943 ± 17 revertants/plate, the antimutagenic effect class [7] was “* (no antimutagenic effect (< 25% inhibition))” and the “effect on MMC-induced mutagenicity” value (TA102, MMC) was “did not affect”. The “% inhibition” value [8] was 52%, the antimutagenic effect class [8] was “*** (strong antimutagenic effect (> 40% inhibition))” and the “% inhibition” value [9] was 18%. The antimutagenic effect class [9] was “* (no antimutagenic effect (< 25% inhibition))”.
